In ChEMBL document CHEMBL5715954, “Silencing c-Myc translation as a therapeutic strategy through targeting PI3Kδ and CK1ε in hematological malignancies” (Blood, 2017):
The source made the active and inactive calls. The rule behind the calls is not given here.

Assays:
[1] = target: T1, mTORC1 (Homo sapiens) (UniProt P42345+Q8N122+Q9BVC4); test: Inhibition of mTORC1 in human CLL cells assessed as reduction in c-Myc expression at 5 uM measured after 24 hrs in presence of bortezomib by Western blot analysis; assay type: cell-based; conditions: CLL cell
[2] = target: T1, mTORC1 (Homo sapiens); test: Inhibition of mTORC1 in human LY7 cells assessed as reduction in c-Myc expression at 3 uM measured after 24 hrs in presence of bortezomib by Western blot analysis; assay type: cell-based
[3] = target: T1, mTORC1 (Homo sapiens); test: Inhibition of mTORC1 in human LY7 cells assessed as reduction in 4E-BP1 phosphorylation at 3 uM measured after 24 hrs in presence of bortezomib by Western blot analysis; assay type: cell-based
[4] = target: T1, mTORC1 (Homo sapiens); test: Inhibition of mTORC1 in human LY10 cells assessed as reduction in 4E-BP1 phosphorylation at 3 uM measured after 24 hrs in presence of bortezomib by Western blot analysis; assay type: cell-based
[5] = system: OCI-Ly10; test: Induction of apoptosis in human LY10 cells assessed as increase in cleaved-PARP expression at 3 uM measured after 24 hrs in presence of bortezomib by Western blot analysis; assay type: functional, cell-based
[6] = system: PF-382; test: Induction of apoptosis in human PF-382 cells assessed as increase in cleaved-PARP expression at 5 uM measured after 24 hrs in presence of bortezomib by Western blot analysis; assay type: functional, cell-based
[7] = target: Myc proto-oncogene protein (Homo sapiens) (UniProt P01106); test: Inhibition of c-Myc in human LY10 cells assessed as reduction in E2F1 expression at 3 uM incubated for 24 hrs in presence of bortezomib by Western blot analysis; assay type: cell-based
[8] = target: Myc proto-oncogene protein (Homo sapiens) (UniProt P01106); test: Inhibition of c-Myc in human LY7 cells assessed as reduction in eIF4B expression at 3 uM incubated for 24 hrs in presence of bortezomib by Western blot analysis; assay type: cell-based
[9] = target: Myc proto-oncogene protein (Homo sapiens) (UniProt P01106); test: Inhibition of c-Myc in human LY7 cells assessed as reduction in E2F1 expression at 3 uM incubated for 24 hrs in presence of bortezomib by Western blot analysis; assay type: cell-based
[10] = target: T2, Casein kinase I isoform epsilon (Homo sapiens, UniProt P49674); test: Inhibition of recombinant human full-length N-terminal GST-tagged CK1epsilon expressed in baculovirus infected Sf9 insect cells at 50 uM using casein as substrate measured after 60 mins by ADP-glo kinase assay relative to control
Target sequence in this assay (P49674 whole entry, looked up, canonical isoform): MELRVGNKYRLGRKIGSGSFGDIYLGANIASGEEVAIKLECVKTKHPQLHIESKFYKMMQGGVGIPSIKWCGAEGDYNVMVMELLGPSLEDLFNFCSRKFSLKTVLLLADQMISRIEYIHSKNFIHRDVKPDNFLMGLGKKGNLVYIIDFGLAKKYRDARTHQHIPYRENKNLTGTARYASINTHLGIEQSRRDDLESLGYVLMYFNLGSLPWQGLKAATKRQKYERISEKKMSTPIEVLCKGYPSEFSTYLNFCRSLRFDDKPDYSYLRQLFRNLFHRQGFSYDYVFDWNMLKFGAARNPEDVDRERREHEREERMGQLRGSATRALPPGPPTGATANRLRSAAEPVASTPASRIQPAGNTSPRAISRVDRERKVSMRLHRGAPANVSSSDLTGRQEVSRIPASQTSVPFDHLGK

[11] = Cytotoxicity against human PBMC assessed as reduction in cell viability at 2.5 to 5 uM measured after 24 to 72 hrs in presence of carfilzomib by cell-titer glo assay; assay type: toxicity, cell-based; conditions: dose lower 2.5 µM, time lower 24 hrs, dose upper 5 µM, time upper 72 hrs
[12] = target: T1, mTORC1 (Homo sapiens); test: Inhibition of mTORC1 in human LY7 cells assessed as reduction in 4E-BP1 phosphorylation at 3 uM measured after 24 hrs in presence of carfilzomib by Western blot analysis; assay type: cell-based
[13] = target: T1, mTORC1 (Homo sapiens); test: Inhibition of mTORC1 in human LY10 cells assessed as reduction in 4E-BP1 phosphorylation at 3 uM measured after 24 hrs in presence of carfilzomib by Western blot analysis; assay type: cell-based
[14] = target: T1, mTORC1 (Homo sapiens); test: Inhibition of mTORC1 in human CLL cells assessed as reduction in c-Myc expression at 5 uM measured after 24 hrs in presence of carfilzomib by Western blot analysis; assay type: cell-based; conditions: CLL cell
[15] = target: T1, mTORC1 (Homo sapiens); test: Inhibition of mTORC1 in human SLL cells assessed as reduction in c-Myc expression at 5 uM measured after 24 hrs in presence of carfilzomib by Western blot analysis; assay type: cell-based
[16] = target: T3, Phosphatidylinositol 4,5-bisphosphate 3-kinase catalytic subunit delta isoform (Homo sapiens) (UniProt O00329); test: Inhibition of PI3Kdelta in human Jurkat cells assessed as reduction in AKT phosphorylation at S473 residue at 1 uM measured after 4 hrs relative to control; assay type: cell-based
T3 sequence (whole entry): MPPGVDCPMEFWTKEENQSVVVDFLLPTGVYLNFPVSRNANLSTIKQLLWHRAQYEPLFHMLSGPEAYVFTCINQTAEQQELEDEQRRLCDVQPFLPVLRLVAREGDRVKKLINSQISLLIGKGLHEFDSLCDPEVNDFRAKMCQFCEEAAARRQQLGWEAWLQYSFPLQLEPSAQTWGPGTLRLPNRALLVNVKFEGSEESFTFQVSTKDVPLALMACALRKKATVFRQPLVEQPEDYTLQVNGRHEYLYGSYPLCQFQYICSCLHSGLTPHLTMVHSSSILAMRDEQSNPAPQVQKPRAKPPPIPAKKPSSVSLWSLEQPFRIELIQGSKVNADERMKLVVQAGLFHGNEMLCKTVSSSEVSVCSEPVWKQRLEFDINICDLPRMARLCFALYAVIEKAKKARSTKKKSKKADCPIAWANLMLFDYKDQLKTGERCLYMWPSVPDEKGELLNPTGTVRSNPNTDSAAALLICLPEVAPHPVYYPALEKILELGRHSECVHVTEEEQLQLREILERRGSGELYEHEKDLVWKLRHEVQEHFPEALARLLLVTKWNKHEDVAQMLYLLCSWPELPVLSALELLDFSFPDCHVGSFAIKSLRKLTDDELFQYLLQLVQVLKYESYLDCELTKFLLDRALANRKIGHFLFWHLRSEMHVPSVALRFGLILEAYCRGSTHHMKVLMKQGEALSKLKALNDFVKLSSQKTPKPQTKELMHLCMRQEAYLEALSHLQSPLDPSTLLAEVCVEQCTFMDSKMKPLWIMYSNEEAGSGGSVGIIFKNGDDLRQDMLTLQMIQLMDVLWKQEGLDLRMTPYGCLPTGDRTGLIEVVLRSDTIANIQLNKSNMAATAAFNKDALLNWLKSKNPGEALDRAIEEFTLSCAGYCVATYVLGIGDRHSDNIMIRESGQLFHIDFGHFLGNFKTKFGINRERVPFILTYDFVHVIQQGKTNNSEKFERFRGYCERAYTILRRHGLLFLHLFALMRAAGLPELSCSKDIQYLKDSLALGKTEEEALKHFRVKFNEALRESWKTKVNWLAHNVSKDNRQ

[17] = target: T1, mTORC1 (Homo sapiens); test: Inhibition of mTORC1 in human LY7 cells assessed as reduction in c-Myc mRNA expression at 3 uM measured after 24 hrs in presence of carfilzomib; assay type: cell-based
[18] = target: T1, mTORC1 (Homo sapiens); test: Inhibition of mTORC1 in human OCILY7 cells transfected with c-Myc-expressing plasmid (M+) assessed as reduction in endogenous c-Myc expression at 3 to 5 uM incubated for 24 hrs in presence of carfilzomib by Western blot analysis; assay type: cell-based; conditions: dose 3-5 µM
[19] = target: T2, Casein kinase I isoform epsilon; test: Inhibition of recombinant human full-length N-terminal GST-tagged CK1epsilon expressed in baculovirus infected Sf9 insect cells using casein as substrate measured after 60 mins by ADP-glo kinase assay
Target sequence in this assay (P49674 whole entry, canonical isoform): as the sequence (P49674 whole entry, looked up, canonical isoform) above

[20] = system: LY7; test: Inhibition of PI3Kdelta/CK1epsilon in human LY7 cells assessed as reduction in c-Myc expression at 15 to 50 uM measured after 24 hrs by Western blot analysis; assay type: cell-based; conditions: dose 15-50 µM
[21] = system: OCI-Ly7; test: Cytotoxicity against human OCILY7 cells transfected with c-Myc-expressing plasmid (M+) assessed as reduction in cell viability at 7.5 to 25 uM incubated for 24 hrs by cell-titer glo assay; assay type: functional, cell-based; conditions: dose 7.5-25 µM

T1 sequence (Q8N122 whole entry, looked up, other chains not shown): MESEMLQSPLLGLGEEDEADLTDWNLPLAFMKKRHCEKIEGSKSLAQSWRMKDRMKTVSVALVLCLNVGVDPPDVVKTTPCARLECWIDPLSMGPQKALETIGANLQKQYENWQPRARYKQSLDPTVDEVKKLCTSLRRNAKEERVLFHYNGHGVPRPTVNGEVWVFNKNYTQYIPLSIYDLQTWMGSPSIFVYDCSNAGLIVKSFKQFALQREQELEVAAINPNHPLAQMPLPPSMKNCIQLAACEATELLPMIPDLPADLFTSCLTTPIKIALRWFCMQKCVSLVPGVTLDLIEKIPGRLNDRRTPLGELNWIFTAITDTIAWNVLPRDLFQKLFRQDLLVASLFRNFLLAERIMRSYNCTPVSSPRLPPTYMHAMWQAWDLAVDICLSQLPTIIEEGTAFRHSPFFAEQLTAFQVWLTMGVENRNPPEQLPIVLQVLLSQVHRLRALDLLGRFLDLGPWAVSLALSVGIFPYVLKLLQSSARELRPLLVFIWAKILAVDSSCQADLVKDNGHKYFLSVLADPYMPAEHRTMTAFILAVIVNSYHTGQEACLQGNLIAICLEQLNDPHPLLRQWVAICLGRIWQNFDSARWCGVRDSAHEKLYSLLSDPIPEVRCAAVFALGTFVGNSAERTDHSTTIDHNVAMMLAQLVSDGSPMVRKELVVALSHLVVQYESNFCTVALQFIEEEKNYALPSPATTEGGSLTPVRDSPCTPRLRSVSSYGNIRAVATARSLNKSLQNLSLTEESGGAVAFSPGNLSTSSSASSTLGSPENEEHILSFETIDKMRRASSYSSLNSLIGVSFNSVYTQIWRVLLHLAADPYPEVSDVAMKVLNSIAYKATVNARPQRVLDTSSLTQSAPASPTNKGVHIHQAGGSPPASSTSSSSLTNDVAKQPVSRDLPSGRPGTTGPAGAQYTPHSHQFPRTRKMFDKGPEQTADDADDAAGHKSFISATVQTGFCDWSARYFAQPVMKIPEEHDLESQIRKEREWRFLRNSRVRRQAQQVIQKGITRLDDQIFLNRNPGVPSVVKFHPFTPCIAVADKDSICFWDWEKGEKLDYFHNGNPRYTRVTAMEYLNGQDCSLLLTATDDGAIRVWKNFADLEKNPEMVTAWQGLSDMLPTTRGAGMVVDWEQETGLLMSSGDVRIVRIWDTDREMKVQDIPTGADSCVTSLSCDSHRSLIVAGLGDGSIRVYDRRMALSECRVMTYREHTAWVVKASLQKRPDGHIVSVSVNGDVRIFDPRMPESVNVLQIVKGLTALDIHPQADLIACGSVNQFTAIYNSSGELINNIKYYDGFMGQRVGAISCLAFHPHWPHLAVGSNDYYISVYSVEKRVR
T1 sequence (Q9BVC4 whole entry, looked up, other chains not shown): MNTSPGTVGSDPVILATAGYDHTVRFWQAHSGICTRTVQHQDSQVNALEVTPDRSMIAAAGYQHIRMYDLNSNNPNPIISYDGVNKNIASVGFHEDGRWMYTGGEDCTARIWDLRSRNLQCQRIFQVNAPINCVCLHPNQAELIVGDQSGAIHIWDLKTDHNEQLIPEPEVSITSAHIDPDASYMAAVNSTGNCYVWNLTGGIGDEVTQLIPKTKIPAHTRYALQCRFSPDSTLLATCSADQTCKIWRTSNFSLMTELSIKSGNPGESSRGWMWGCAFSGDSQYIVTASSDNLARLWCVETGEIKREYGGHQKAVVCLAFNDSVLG
Sequence of Myc proto-oncogene protein (Homo sapiens) (P01106 whole entry, canonical isoform): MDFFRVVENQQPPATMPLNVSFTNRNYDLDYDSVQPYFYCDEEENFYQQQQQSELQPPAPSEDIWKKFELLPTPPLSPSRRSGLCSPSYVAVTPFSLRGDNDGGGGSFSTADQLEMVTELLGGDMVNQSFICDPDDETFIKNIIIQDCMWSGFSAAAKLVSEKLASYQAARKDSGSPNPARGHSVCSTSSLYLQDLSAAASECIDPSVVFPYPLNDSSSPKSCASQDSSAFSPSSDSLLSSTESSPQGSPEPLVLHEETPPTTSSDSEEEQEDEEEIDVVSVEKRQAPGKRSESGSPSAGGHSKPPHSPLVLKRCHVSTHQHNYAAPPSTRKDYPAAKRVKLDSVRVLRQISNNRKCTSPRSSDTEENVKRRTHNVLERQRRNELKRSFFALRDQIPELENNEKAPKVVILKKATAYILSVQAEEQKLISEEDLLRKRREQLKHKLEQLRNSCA

In the case of `CC[C@H](Nc1ncnc2[nH]cnc12)c1nc2cccc(F)c2c(=O)n1-c1ccccc1`, the inhibition [1] is reported as “inactive”, the inhibition [2] is reported as “inactive” and the inhibition [3] is reported as “inactive”. For the same molecule, the inhibition [4] was “inactive”, the Activity [5] was “Active” and the Activity [6] was “Active”. For the same molecule, the inhibition [7] was “inactive”, the inhibition [8] was “inactive” and the inhibition [9] was “inactive”. For the same molecule, the inhibition [10] was under 50%.
For `CC(C)Oc1ccc(-c2nn([C@@H](C)c3oc4ccc(F)cc4c(=O)c3-c3cccc(F)c3)c3ncnc(N)c23)cc1F` [UMBRALISIB], the Activity [11] was “Non-Toxic”, the inhibition [12] was “Active” and the inhibition [13] was “Active”. For the same molecule, the inhibition [14] was “Active”, the inhibition [15] was “Active” and the inhibition [16] was 43%. For the same molecule, the inhibition [17] was “inactive”, the inhibition [18] was “inactive” and the EC50 [19] was 6 µM. For the same molecule, the inhibition [20] was “Active” and the Activity [21] was “inactive”.
